Measurements as given in PMC8876114, “Cytotoxicity and anti-HIV activities of extracts of the twigs of Croton dichogamus Pax” (BMC Complementary Medicine and Therapies, 2022).
Values after ≈ are worked out from the molar mass of the structure shown. Read-outs that look alike come from different tables or passages of the source.

What was measured:
[1] = test system: Caco-2 human colon carcinoma cell lines; conditions: cited from earlier work
[2] = test system: HIV-1IIIB laboratory-adapted strain; assay: Anti-HIV activity test: prevention of HIV-1 cytopathic effect in MT-4 cells (MTT); format: cell-based, Human immunodeficiency virus type 1; conditions: for IC50: Human immunodeficiency virus 1, MT4, read-out: IC50 (50% antiviral effect concentration); for EmaxAV (maximum antiviral effect %): inhibition of viral-induced cytopathic effect, HIV-1IIIB in MT-4 cells; for SI (selectivity index): ratio of CC50 to IC50, MT-4 cells
Protocol: Human immunodeficiency virus type 1 (HIV-1) IIIB (also referred to as HTLV-IIIB) was obtained through the NIH HIV Reagent Program, Division of AIDS, NIAID, NIH: Human Immunodeficiency Virus-1 IIIB, ARP-398, contributed by Dr. Robert Gallo. The effects of the test compounds in preventing the cytopathic effect resulting from HIV-1 replication were evaluated by the MTT colorimetric assay described above.
The laboratory-adapted strain of human immunodeficiency virus type 1 (HIV-1IIIB) obtained from the National Institutes of Health HIV Reagent Program was used in this experiment. A total of 50 µl of different concentrations ([…]) of the test compounds were seeded into 96-well flat-bottomed microtiter culture plates containing HIV-infected MT-4 cells.

[3] = test system: human T-lymphocytic MT-4 cells; format: cell-based; conditions: for CC50 (50% cytotoxic concentration): MT-4 cells, MTT, mean ± S.E.M; for MNTC (maximum nontoxic concentration): human
Protocol: In this study, human T-lymphocytic MT-4 cells (ARP-120) were obtained through the National Institute of Health (NIH) HIV Reagent Program, Division of AIDS, National Institute of Allergy, and Infectious Diseases (NIAID), NIH: MT-4 Cells, ARP-120, contributed by Dr. Douglas Richman. The cytotoxicity test was conducted to evaluate the plant extracts' safety by measuring cell death caused by the plant extracts. The assay was conducted using the MTT colorimetric assay as described previously.
Four solvent fractions of twigs of C. dichogamus were examined for their ability to inhibit HIV-1 replication. In addition, the in vitro toxicity of these extracts to human T-lymphocytic MT-4 cells was investigated by MTT assay. […] The average absorbance value from three replicate determinations was used to express the viability of the cells as a percentage of negative controls, and the CC50 for each plant extract was determined graphically by plotting the % growth inhibition (Emaxc) against the plant extract concentration.

[4] = test system: HIV; set-up: method as in PMID 8176401; conditions: cited from earlier work
[5] = test system: HIV; conditions: cell-based in vitro assay; literature report, no reference given; cited from earlier work
[6] = test system: HIV; set-up: method as in PMID 14980692; conditions: cited from earlier work
[7] = test system: A-549; set-up: method as in PMID 23103294; conditions: A-549, MTT method; read-out: IC50 (cytotoxicity); cited from earlier work
[8] = test system: MCF-7; set-up: method as in PMID 23103294; conditions: MCF-7, MTT method; read-out: IC50 (cytotoxicity); cited from earlier work
[9] = test system: HL-60; set-up: method as in PMID 23103294; conditions: HL-60, MTT method; read-out: IC50 (cytotoxicity); cited from earlier work
[10] = test system: SW-480; set-up: method as in PMID 23103294; conditions: SW-480, MTT method; read-out: IC50 (cytotoxicity); cited from earlier work
[11] = test system: SMMC-7721; set-up: method as in PMID 23103294; conditions: SMMC-7721, MTT method; read-out: IC50 (cytotoxicity); cited from earlier work
[12] = HIV-1IIIB-infected MT-4 cells, MTT, mean ± S.E.M

10-epi-manninsigin D
decrease of viability ([1]; Caco-2, at a concentration of 100 mM): 43%

Nc1nc(NC2CC2)c2ncn([C@H]3C=C[C@@H](CO)C3)c2n1 [ABC, abacavir]
IC50 [2, 12]: 0.05 ± 0.031 µg/mL (≈ 0.175 µM) | EmaxAV (maximum antiviral effect %) ([2]; mean ± S.E.M): 58.67 ± 0.43% | SI (selectivity index) [2]: 5.0 | CC50 (50% cytotoxic concentration) [3]: 0.26 ± 0.00 µg/mL (≈ 0.908 µM) | MNTC (maximum nontoxic concentration) [3]: 0.18 ± 0.03 µg/mL

Cc1cn([C@H]2C[C@H](N=[N+]=[N-])[C@@H](CO)O2)c(=O)[nH]c1=O [AZT, zidovudine]
IC50 [2]: 0.002 µg/mL (≈ 0.00748 µM) | EmaxAV (maximum antiviral effect %) ([2]; mean ± S.E.M): 83.5 ± 0.57% | EmaxAV (maximum antiviral effect %) ([2]; mean ± S.E.M, listed as zidovudine): 83.5%

Cc1ccnc2c1NC(=O)c1cccnc1N2C1CC1 [NVP, nevirapine]
IC50 [2, 12]: 0.24 ± 0.09 µg/mL (≈ 0.901 µM) | EmaxAV (maximum antiviral effect %) ([2]; mean ± S.E.M): 72.53 ± 0.47% | SI (selectivity index) [2]: 3.5 | CC50 (50% cytotoxic concentration) [3]: 0.82 ± 0.0 µg/mL (≈ 3.08 µM) | MNTC (maximum nontoxic concentration) [3]: 0.57 ± 0.0 µg/mL

C[C@H](Cn1cnc2c(N)ncnc21)OCP(=O)(O)O [TDF, tenofovir]
IC50 [2, 12]: 0.04 ± 0.01 µg/mL (≈ 0.139 µM) | EmaxAV (maximum antiviral effect %) ([2]; mean ± S.E.M): 80.55 ± 0.46% | CC50 (50% cytotoxic concentration) [3]: 6.73 ± 0.24 µg/mL (≈ 23.4 µM) | MNTC (maximum nontoxic concentration) [3]: 4.92 ± 0.71 µg/mL

C=C(C)[C@@H]1CC[C@]2(C(=O)O)CC[C@]3(C)[C@H](CC[C@@H]4[C@@]5(C)CC[C@H](O)C(C)(C)[C@@H]5CC[C@]43C)[C@@H]12 [betulinic acid]
anti-HIV activity (in words) [4]: exhibited anti-HIV activity

CC1=CC[C@]2(C)CC(=O)[C@]3(C)C(=O)C=C(C(C)C)[C@@H]3[C@H]2CC1 [cyanthiwigin B]
anti-HIV activity (in words) [5]: Moderate anti-HIV activity

CC1(C)CC[C@]2(C(=O)O)CC[C@]3(C)C(=CC[C@@H]4[C@@]5(C)CC[C@H](O)C(C)(C)[C@@H]5CC[C@]43C)[C@@H]2C1 [oleanolic acid]
anti-HIV activity (in words) [4]: exhibited anti-HIV activity

CC(=O)[C@@H]1CC[C@]2(C(=O)O)CC[C@]3(C)[C@H](CC[C@@H]4[C@@]5(C)CC[C@H](O)C(C)(C)[C@@H]5CC[C@]43C)[C@@H]12 [platanic acid]
anti-HIV activity (in words) [4]: exhibited anti-HIV activity

acetin
anti-HIV activity (in words) [6]: potent anti-HIV activity

furocrotinsulolide
cytotoxicity activity (in words) ([1]; Caco-2 cell line, at 30 μm): modest cytotoxicity activity

maninsigin D
IC50 [7]: > 40 µM | IC50 [8]: > 40 µM | IC50 [9]: > 40 µM | IC50 [10]: > 40 µM | IC50 [11]: > 40 µM
